Assay type in all cases: cell-based
The subject of series [1] is LNCaP cells. Kind of series: MTT assay (cytotoxicity), LNCaP cells. Particulars: 72 h. The procedure: (§1) MTT assays: LNCaP, 22Rv1, Du145, H1975, A549, MB231 and MCF-7 cells are maintained in RPMI 1640 supplemented with 10% FBS. Cells were seeded at a density of 6-7×10^3 cells per well in 96-well plates. After overnight incubation, cells in fresh RPMI 1640 supplemented with 10% FBS were exposed to DMSO vehicle control or test compounds at designated concentrations for 72 h. Viable cells were evaluated by MTT assays. Experiments were performed in triplicate and repeated at least twice.
(Tetrazolium assays rely on reduction of a dye to a coloured formazan, in cell work by metabolically active cells.)

Series [2] concerns DU145 cells. Kind of series: MTT assay (cytotoxicity), DU145 cells. Particulars: 72 h. On the procedure:
as §1

The test system of series [3] is 22Rv1 cells. In words: MTT assay (cytotoxicity), 22Rv1 cells. Particulars: 72 h. The procedure: as §1
Series [4] is described as follows: MTT assay (cytotoxicity), LNCaP cells. The following applies: human, LNCaP cells, 72 h treatment, Table 6.1. The procedure:
as §1

The nature of series [5]: MTT assay (cytotoxicity), 22Rv1 cells. The following applies: human, 22Rv1 cells, 72 h treatment, Table 6.1. The procedure: as §1

Molecules are shown by their SMILES.

For the compound `O=C(N/C=C/c1ccc(C(F)(F)F)cc1)Nc1ccc([N+](=O)[O-])c(C(F)(F)F)c1` [Compound 407], the IC50 – broadly, the concentration at which inhibition is half-maximal – in series [1] (Table 2.2) turned out to be 9.6 µM; in series [2] (Table 2.2) it was 15.3 µM.
Consider `N#Cc1ccc(NC(=O)N/C=C/c2cc(C(F)(F)F)ccc2C(F)(F)F)cn1` [Compound 480], for which the concentration for half-maximal inhibition (IC50) came out at 1.8 µM in series [3] (Table 2.1) and 1.7 µM in series [2] (Table 2.1).
For `O=C(N/C=C/c1cccc(C(F)(F)F)c1)Nc1cccc(C(F)(F)F)c1` [Compound 403], the concentration for half-maximal inhibition (IC50) was 12.3 µM in series [1] (Table 2.2) and more than 20 µM in series [2] (Table 2.2).
For the compound `N#Cc1ccc(NC(=O)N/C=C/c2cc(C(F)(F)F)ccc2C(F)(F)F)cc1` [Compound 468], the IC50 in series [1] (Table 2.2) stood at 0.9 µM; in series [3] (Table 2.2) it was 1.9 µM; in series [2] (Table 2.2), 1.5 µM.
As to `N#Cc1ccc(NC(=O)N/C=C/c2ccccc2C(F)(F)F)cc1` [Compound 405], the half-inhibitory concentration (IC50) amounted to 3.4 µM in series [1] (Table 2.2) and 8.3 µM in series [2] (Table 2.2).
For the compound `N#Cc1ccc(NC(=O)N/C=C/c2cccc(C(F)(F)F)c2)cn1` [Compound 510], the IC50 in series [1] (Table 2.1) came to 3.3 µM; in series [3] (Table 2.1) it was 6.6 µM; in series [2] (Table 2.1), 5.7 µM.
`O=C(N/C=C/c1cccc(C(F)(F)F)c1)Nc1ccccc1` [Compound 413] came in with an IC50 in series [1] (Table 2.2) of more than 20 µM.
`COc1cccc(NC(=O)N/C=C/c2ccccc2C(F)(F)F)c1` [Compound 429]: the IC50 in series [1] (Table 2.2) came to 9.1 µM; in series [3] (Table 2.2), 16.4 µM; in series [2] (Table 2.2), 14.9 µM.
In the same order, the values of `O=C(N/C=C/c1cccc([N+](=O)[O-])c1)Nc1ccc([N+](=O)[O-])c(C(F)(F)F)c1` [Compound 456] are 2 µM, 4.1 µM and 5.2 µM.
In the same order, the values of `O=C(N/C=C/c1cccc(OC(F)(F)F)c1)Nc1ccc([N+](=O)[O-])c(C(F)(F)F)c1` [Compound 437] are 1.6 µM, 2.7 µM and 3 µM.
For the compound `N#Cc1ccc(NC(=O)N/C=C/c2ccc(C(F)(F)F)cc2)cc1C(F)(F)F` [Compound 421], the results for the 50% inhibitory concentration (IC50) in series [1] (Table 2.2), in series [3] (Table 2.2) and in series [2] (Table 2.2) were 1.4 µM, 7.2 µM and 3.4 µM, respectively.
As for `N#Cc1ccc(NC(=O)Nc2ccc([N+](=O)[O-])c(C(F)(F)F)c2)cc1C(F)(F)F` [Compound 465], the IC50 came to 4.1 µM in series [1] (LNCaP cells, Table 4.2); 5.2 µM in series [3] (22Rv1 cells, Table 4.2); 5.3 µM in series [2] (DU145 cells, Table 4.2).
As to `COc1cccc(/C=C/NC(=O)Nc2cccc(OC)c2)c1` [Compound 430], the concentration for half-maximal inhibition (IC50) in series [1] (Table 2.2) and in series [3] (Table 2.2) was more than 20 µM in each case.
As for `N#Cc1ccc(NC(=O)Nc2cc(C(F)(F)F)cc(C(F)(F)F)c2)cc1Cl` [Compound 500], the half-inhibitory concentration (IC50) is 0.2 µM in series [1] (LNCaP cells, Table 4.2); 0.4 µM in series [3] (22Rv1 cells, Table 4.2); 1.3 µM in series [2] (DU145 cells, Table 4.2).
Regarding `N#Cc1ccc(NC(=O)N/C=C/c2cc(C(F)(F)F)cc(C(F)(F)F)c2)cc1` [Compound 469], the half-maximal inhibitory concentration (IC50) in series [1] (Table 2.2) is 1 µM; in series [3] (Table 2.2), 1.9 µM; in series [2] (Table 2.2), 1.7 µM.
For `O=C(N/C=C/c1cccc(C(F)(F)F)c1)Nc1ccc([N+](=O)[O-])cc1` [Compound 449] the same measures were 2.1 µM, 5.3 µM and 3.9 µM.
As for `O=C(N/C=C/c1cccc(F)c1)Nc1ccc([N+](=O)[O-])c(C(F)(F)F)c1` [Compound 412], the values for the 50% inhibitory concentration (IC50) in series [1] (Table 2.2) and in series [3] (Table 2.2) were 18.8 µM and more than 20 µM, respectively.
For `COc1cc([N+](=O)[O-])ccc1NC(=O)N/C=C/c1cccc(C(F)(F)F)c1` [Compound 441], the concentration for half-maximal inhibition (IC50) is 4.8 µM in series [1] (Table 2.2), 8.3 µM in series [3] (Table 2.2) and 6.7 µM in series [2] (Table 2.2).
Regarding `O=C(N/C=C/c1cc(C(F)(F)F)cc(C(F)(F)F)c1)Nc1cncc(F)c1` [Compound 535], the 50% inhibitory concentration (IC50) in series [1] (Table 2.1) was determined as 2.6 µM; in series [3] (Table 2.1) it was 3.1 µM; in series [2] (Table 2.1), 3 µM.
Take `N#Cc1ccc(NC(=O)N/C=C/c2cc(C(F)(F)F)cc(C(F)(F)F)c2)nc1` [Compound 483]: the IC50 in series [3] (Table 2.1) worked out at 2.3 µM; in series [2] (Table 2.1), 2 µM.
As for `O=C(N/C=C/c1cc(C(F)(F)F)cc(C(F)(F)F)c1)Nc1ncccn1` [Compound 531], the IC50 in series [1] (Table 2.1) and in series [2] (Table 2.1) was less than 1 µM in each case.
Regarding `O=C(N/C=C/c1cccc(F)c1)Nc1cccc(C(F)(F)F)c1` [Compound 414], the 50% inhibitory concentration (IC50) in series [1] (Table 2.2) was 3.8 µM; in series [3] (Table 2.2) it was 8.2 µM; in series [2] (Table 2.2) it was 7.8 µM.
Regarding `O=C(N/C=C/c1cc(C(F)(F)F)cc(C(F)(F)F)c1)Nc1cnccc1Cl` [Compound 533], the IC50 came out at 2 µM in series [1] (Table 2.1), 10.9 µM in series [3] (Table 2.1) and 6.5 µM in series [2] (Table 2.1).
For `O=C(N/C=C/c1ccccc1C(F)(F)F)Nc1ccc([N+](=O)[O-])c(C(F)(F)F)c1` [Compound 404], the figures for the half-inhibitory concentration (IC50) in series [1] (Table 2.2) and in series [2] (Table 2.2) were 9.3 µM and 16.4 µM, respectively.
Compound `O=C(N/C=C/c1ccccc1C(F)(F)F)Nc1cccc(C(F)(F)F)c1` [Compound 406] displayed a half-maximal inhibitory concentration (IC50) in series [1] (Table 2.2) of 14.4 µM.
For the compound `N#Cc1ccc(NC(=O)N/C=C/c2cc(C(F)(F)F)ccc2C(F)(F)F)nc1` [Compound 481], the figures for the concentration for half-maximal inhibition (IC50) in series [3] (Table 2.1) and in series [2] (Table 2.1) were 2.6 µM and 0.8 µM, respectively.
As for `O=C(N/C=C/c1cc(C(F)(F)F)cc(C(F)(F)F)c1)Nc1cccnc1` [Compound 503], the half-maximal inhibitory concentration (IC50) in series [1] (Table 2.1) stood at 7.5 µM; in series [3] (Table 2.1), 11.3 µM; in series [2] (Table 2.1), 9.5 µM.
`N#Cc1ccc(NC(=O)N/C=C/c2cc(C(F)(F)F)cc(C(F)(F)F)c2)cc1C(F)(F)F` [Compound 463]: the results for the 50% inhibitory concentration (IC50) in series [1] (Table 2.2), in series [3] (Table 2.2) and in series [2] (Table 2.2) were 1.2 µM, 1 µM and 1.2 µM, respectively.
On to `CN(C)c1ccc(NC(=O)N/C=C/c2cccc(C(F)(F)F)c2)cc1` [Compound 435], for which the results for the half-maximal inhibitory concentration (IC50) in series [1] (Table 2.2), in series [3] (Table 2.2) and in series [2] (Table 2.2) were 13.1 µM, more than 20 µM and 20 µM, respectively.
In the same order, the values of `COc1cccc(NC(=O)N/C=C/c2cccc(C(F)(F)F)c2)c1` [Compound 417] are 14.6 µM, 10.8 µM and 12.2 µM.
On to `N#Cc1ccc(NC(=O)N/C=C/c2cc(C(F)(F)F)ccc2C(F)(F)F)cc1C(F)(F)F` [Compound 464], for which the half-inhibitory concentration (IC50) worked out at 0.4 µM in series [1] (Table 2.2), 0.7 µM in series [3] (Table 2.2) and 0.4 µM in series [2] (Table 2.2).
Turning to `O=C(N/C=C/c1ccccc1)Nc1cccc(C(F)(F)F)c1` [Compound 415], the figures for the IC50 in series [1] (Table 2.2), in series [3] (Table 2.2) and in series [2] (Table 2.2) were 6.6 µM, 11 µM and 14 µM, respectively.
In the same order, the values of `O=C(N/C=C/c1cccc(C(F)(F)F)c1)Nc1ccc(-n2ccnc2)cc1` [Compound 446] are 11.1 µM, 18.4 µM and more than 20 µM.
As to `N#Cc1ccc(NC(=O)Nc2ccc(C(F)(F)F)cc2)cc1C(F)(F)F` [Compound 509], the IC50 in series [1] (LNCaP cells, Table 4.2) was determined as 0.7 µM; in series [3] (22Rv1 cells, Table 4.2), 1.6 µM; in series [2] (DU145 cells, Table 4.2) it was 5.4 µM.
In the same order, the values of `N#Cc1ccc(NC(=O)Nc2ccc(C(F)(F)F)cc2)cc1Cl` [Compound 502] are 1.2 µM, 2.2 µM and 4.1 µM.
Regarding `O=C(N/C=C/c1cc(C(F)(F)F)cc(C(F)(F)F)c1)Nc1nccc(C(F)(F)F)n1` [Compound 538], the half-maximal inhibitory concentration (IC50) in series [1] (Table 2.1) was less than 1 µM; in series [2] (Table 2.1), 1.2 µM.
`O=C(N/C=C/c1ccc(C(F)(F)F)cc1)Nc1cccc(C(F)(F)F)c1` [Compound 408]: in series [1] (Table 2.2), the IC50 was determined as 15.6 µM.
In the case of `O=C(Nc1cccc(C(F)(F)F)c1)Nc1ccccc1NC(=O)Nc1cccc(C(F)(F)F)c1` [Compound 967], the half-inhibitory concentration (IC50) at 72 h in series [4] was determined as 2.7 µM; in series [5] it was 3.1 µM.

The record behind these values is patent US20170273922A1, “UREA AND BIS-UREA BASED COMPOUNDS AND ANALOGUES THEREOF USEFUL IN THE TREATMENT OF ANDROGEN RECEPTOR MEDIATED DISEASES OR DISORDERS” (THE ROYAL INSTITUTION FOR THE ADVACEMENT OF LEARNING/MCGILL …, priority 2014, published 2017).
